Data reported in patent US10857136B2, “Compounds for use in the prevention and/or treatment of non-alcoholic fat liver disease and non-alcoholic steatohepatitis” (SJT MOLECULAR RESEARCH, SL, priority 2017, dated 2020).

How the values were obtained:
[1] = system: DIO-NASH mice (C57Bl/6J male mice); experiment: Total fat content in liver (morphometry, H&E), 8 weeks assay in DIO-NASH mice; format: in vivo; details: 50 mg/kg, p.o., b.i.d., vs DIO-NASH vehicle
Source text: The DIO-NASH mouse model is fed a high fat diet that results on non-alcoholic fat liver disease and are based on C57Bl/6J mice put on a 40% high fat diet prior to the assays. For the assessment of effect of the compounds of the invention in liver lipid content in non-alcoholic fat liver disease, 34 C57Bl/6J male mice (5-week-old at delivery), obtained from Janvier, France, were used. The DIO-NASH mice group were put on high fat diet (40% AMLN diet, D09100301 Research Diets, USA) and a control group (LEAN-CHOW) was put on a regular chow diet (Altromin 1324, Brogaarden, Denmark) for 35 weeks prior to the study.
The animals (kept in single housings) were checked minimum once daily where signs of abnormal behavior, abnormal locomotor activity, ataxia or clinical signs of disease (lack of grooming, raised fur, signs of pain upon handling, loss of excessive body-weight) were followed closely. […]
To assess the effect of compound 4a on hepatic lipid content in mice with non-alcoholic fat liver disease, DIO-NASH mice (C57Bl/6J male mice) were treated with a hydrochloride salt of compound 4a during 8 weeks (50 mg/kg, p.o., b.i.d.), versus a control of DIO-NASH mice treated with saline (0.9% NaCl) and versus LEAN-CHOW mice also treated with saline (0.9% NaCl), […]. Liver lipid content was determined by morphometry. […]

[2] = system: DIO mice (C57Bl/6J male mice); experiment: Insulin resistance (HOMA-IR), 36 days assay in DIO mice; format: in vivo; details: 50 mg/kg orally twice daily for 36 days, days 1, 8, 15, 22, 29 and 36, vs saline control, similar to metformin 150 mg/kg
Protocol: To assess the performance of the compounds disclosed in decreasing insulin resistance, DIO mice (C57Bl/6J male mice) were treated with hydrochloride salts of compounds 4a, 5a; and with compound 7a during 36 days, versus a control treated with saline (0.9% NaCl) and versus DIO mice treated with metformin as a positive control.
For the assessment, 60 C57Bl/6 J male mice (16-week-old at delivery and 40 g of average weight), obtained from Charles River France put on high fat diet for 10 weeks. The animals were housed in ventilated and enriched housing cages (310×125×127 mm^3) throughout the experimental phase. Animals' cages litters were changed at least once a week. Mice were housed in groups of 10 mice on a normal 12 hours light cycle (at 08:00 pm lights were switched off), at 22±2° C. and 50±10% relative humidity. After reception, mice were maintained for three additional acclimation weeks. During the whole test (acclimation+treatment phase) a high fat diet (D12492 purchased from Research Diet Inc.; 60% fat) and tap water were provided ad libitum.
After the acclimation period, mice were fasted for 6 hours and blood glucose and plasma insulin were measured. Ten animals, those with lower blood glucose/plasma insulin, were discarded from the study. […]
Body weight were weekly measured as well as blood glucose and plasma insulin after a 6 hour-fasting.
Blood glucose was measured by sampling blood from the tip of the tail: a drop of blood is collected and placed on a glucometer strip (Accu-Check® glucometer, Roche, Switzerland). Plasma insulin was detected via ELISA (Elisa Kit, Eurobio, France) using 5 μl samples.
The Homeostatic model assessment-insulin resistance index (HOMA-IR), which is used to quantify insulin resistance, was calculated from fasting blood glucose, and plasma insulin values as follows: HOMA-IR=(mM glucose×μU/mL insulin)/22.5, being this constant a normalizing factor (Matthews et al., 1985, Diabetologia 28(7), 412-9).

COc1ccc(-c2nc(C(=O)NCCN)cc3c2[nH]c2ccccc23)cc1 [Compound 4a, N(-ethylamine)-1-benzosubstituted-β-carboline-3-carboxamide]
steatosis in representative images of liver morphology (H&E) [1]: diminished the steatosis | liver lipid content (steatosis) determined by morphometry ([1]; p<0.001): reduced liver lipid content | insulin resistance (HOMA-IR) [2]: lower insulin resistance compared to the control animals
